Where two headings read alike, the source gives them in different places.
Tests used:
[1] = target: T1, HeLa cell extract proteins (Homo sapiens, UniProt Q92499); assay type: binding
T1 construct: endogenous in cells; host or cells: HeLa cell extract
T1 sequence (Q92499 1-740): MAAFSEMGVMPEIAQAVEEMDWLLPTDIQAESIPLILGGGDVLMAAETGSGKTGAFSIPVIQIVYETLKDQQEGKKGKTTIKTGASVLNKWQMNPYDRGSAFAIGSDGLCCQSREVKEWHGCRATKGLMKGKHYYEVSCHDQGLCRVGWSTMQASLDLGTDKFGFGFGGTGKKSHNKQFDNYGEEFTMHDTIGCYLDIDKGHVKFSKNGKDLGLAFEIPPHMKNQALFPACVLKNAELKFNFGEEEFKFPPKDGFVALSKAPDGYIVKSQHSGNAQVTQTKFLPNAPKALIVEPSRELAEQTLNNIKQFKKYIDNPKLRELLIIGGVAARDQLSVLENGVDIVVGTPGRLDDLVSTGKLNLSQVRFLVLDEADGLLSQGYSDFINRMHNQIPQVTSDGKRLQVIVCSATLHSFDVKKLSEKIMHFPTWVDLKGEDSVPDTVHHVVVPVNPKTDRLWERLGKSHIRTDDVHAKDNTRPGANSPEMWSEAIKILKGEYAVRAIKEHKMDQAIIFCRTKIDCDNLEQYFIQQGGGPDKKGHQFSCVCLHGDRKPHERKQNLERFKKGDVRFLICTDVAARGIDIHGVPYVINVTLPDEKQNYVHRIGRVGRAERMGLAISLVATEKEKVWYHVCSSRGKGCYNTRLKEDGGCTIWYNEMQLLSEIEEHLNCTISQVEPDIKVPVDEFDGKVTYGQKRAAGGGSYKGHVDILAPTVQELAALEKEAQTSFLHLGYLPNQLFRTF

[2] = target: T2, HeLa cell extract proteins (Homo sapiens, UniProt P40938); assay type: binding
T2 construct: endogenous in cells; host or cells: HeLa cell extract

[3] = target: T3, HeLa cell extract proteins (Homo sapiens, UniProt Q99805); assay type: binding
T3 construct: endogenous in cells; host or cells: HeLa cell extract

[4] = target: T4, HeLa cell extract proteins (Homo sapiens, UniProt P13797); assay type: binding
T4 construct: endogenous in cells; host or cells: HeLa cell extract
T4 sequence (P13797 1-630): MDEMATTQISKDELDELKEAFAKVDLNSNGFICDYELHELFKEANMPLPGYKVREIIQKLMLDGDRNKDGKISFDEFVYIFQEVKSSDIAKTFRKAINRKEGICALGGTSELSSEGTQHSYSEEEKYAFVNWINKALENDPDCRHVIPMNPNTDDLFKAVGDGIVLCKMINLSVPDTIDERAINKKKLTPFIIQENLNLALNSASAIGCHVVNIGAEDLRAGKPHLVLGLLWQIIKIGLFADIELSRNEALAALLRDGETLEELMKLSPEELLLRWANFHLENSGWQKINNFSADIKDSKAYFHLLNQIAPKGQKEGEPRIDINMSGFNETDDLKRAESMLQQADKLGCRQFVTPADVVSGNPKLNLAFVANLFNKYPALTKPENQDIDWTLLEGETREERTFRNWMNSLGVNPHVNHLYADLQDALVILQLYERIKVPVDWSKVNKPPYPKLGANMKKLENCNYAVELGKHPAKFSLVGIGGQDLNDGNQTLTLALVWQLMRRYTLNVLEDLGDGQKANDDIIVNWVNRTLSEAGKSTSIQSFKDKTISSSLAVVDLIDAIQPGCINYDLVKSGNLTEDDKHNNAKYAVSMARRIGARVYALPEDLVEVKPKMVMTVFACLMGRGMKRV

[5] = target: T5, HeLa cell extract proteins (Homo sapiens, UniProt Q15370); assay type: binding
T5 construct: endogenous in cells; host or cells: HeLa cell extract

[6] = target: T6, HeLa cell extract proteins (Homo sapiens, UniProt Q6R327); assay type: binding
T6 construct: endogenous in cells; host or cells: HeLa cell extract

[7] = target: T7, HeLa cell extract proteins (Homo sapiens, UniProt P49736); assay type: binding
T7 construct: endogenous in cells; host or cells: HeLa cell extract

[8] = target: T8, HeLa cell extract proteins (Homo sapiens, UniProt P51570); assay type: binding
T8 construct: endogenous in cells; host or cells: HeLa cell extract

TbDHFR = settings: direct enzyme assays; cited from earlier work
[9] = target: T9, HeLa cell extract proteins (Homo sapiens, UniProt P36957); assay type: binding; settings: protein DLST; HeLa
T9 construct: endogenous in cells; host or cells: HeLa cell extract
T9 sequence (P36957 68-453): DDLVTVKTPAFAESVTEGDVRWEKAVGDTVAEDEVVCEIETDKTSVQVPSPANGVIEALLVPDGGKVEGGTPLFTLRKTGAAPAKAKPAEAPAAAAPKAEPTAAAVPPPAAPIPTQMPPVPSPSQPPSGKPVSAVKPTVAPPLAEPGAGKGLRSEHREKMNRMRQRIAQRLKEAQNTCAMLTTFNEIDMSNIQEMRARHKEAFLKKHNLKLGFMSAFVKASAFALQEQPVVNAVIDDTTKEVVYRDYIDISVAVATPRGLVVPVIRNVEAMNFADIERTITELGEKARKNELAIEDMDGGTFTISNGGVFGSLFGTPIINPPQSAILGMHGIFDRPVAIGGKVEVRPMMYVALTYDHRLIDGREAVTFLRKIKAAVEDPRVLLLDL

[10] = target: T10, HeLa cell extract proteins (Homo sapiens, UniProt Q08945); assay type: binding; settings: protein SSRP1; HeLa
T10 construct: endogenous in cells; host or cells: HeLa cell extract

[11] = target: T11, HeLa cell extract proteins (Homo sapiens, UniProt Q09666); assay type: binding; settings: HeLa; protein AHNAK
T11 construct: endogenous in cells; host or cells: HeLa cell extract

[12] = tested on: HYPOTHETICAL PROTEIN, CONSERVED (TB427.03.2670); assay: Multitargeted bead mixture competition; assay type: binding; settings: free ligand 100 μM, T. brucei lysate
TB427.04.1870 = assay: Multitargeted bead mixture competition; assay type: binding; settings: free ligand 100 μM, T. brucei lysate
[13] = tested on: PHOSPHATIDYLINOSITOL-4-PHOSPHATE 5-KINASE, PUTATIV (TB427.10.3890); assay: Multitargeted bead mixture competition; assay type: binding; settings: free ligand 100 μM, T. brucei lysate
[14] = tested on: SUCCINYL-COA SYNTHETASE ALPHA SUBUNIT, PUTATIVE (Tb427.03.2230); assay: Multitargeted bead mixture competition; assay type: binding; settings: free ligand 100 μM, T. brucei lysate
TB927.8.6760 = assay: Multitargeted bead mixture competition; assay type: binding; settings: free ligand 100 μM, T. brucei lysate
[15] = tested on: HYPOTHETICAL PROTEIN, CONSERVED (TB427.05.3680); assay: Multitargeted bead mixture competition; assay type: binding; settings: free ligand 100 μM, T. brucei lysate
T. brucei = tested on: T. brucei; parameters: method as in ref 5 (SI); settings: ref 5 (SI); read-out: EC50 against T. brucei, in vitro cell growth; cited from earlier work
[16] = HeLa, protein GALK1 (CDNA FLJ56840, HIGHLY SIMILAR TO GALACTOKINASE)

T6 sequence (Q6R327 whole entry): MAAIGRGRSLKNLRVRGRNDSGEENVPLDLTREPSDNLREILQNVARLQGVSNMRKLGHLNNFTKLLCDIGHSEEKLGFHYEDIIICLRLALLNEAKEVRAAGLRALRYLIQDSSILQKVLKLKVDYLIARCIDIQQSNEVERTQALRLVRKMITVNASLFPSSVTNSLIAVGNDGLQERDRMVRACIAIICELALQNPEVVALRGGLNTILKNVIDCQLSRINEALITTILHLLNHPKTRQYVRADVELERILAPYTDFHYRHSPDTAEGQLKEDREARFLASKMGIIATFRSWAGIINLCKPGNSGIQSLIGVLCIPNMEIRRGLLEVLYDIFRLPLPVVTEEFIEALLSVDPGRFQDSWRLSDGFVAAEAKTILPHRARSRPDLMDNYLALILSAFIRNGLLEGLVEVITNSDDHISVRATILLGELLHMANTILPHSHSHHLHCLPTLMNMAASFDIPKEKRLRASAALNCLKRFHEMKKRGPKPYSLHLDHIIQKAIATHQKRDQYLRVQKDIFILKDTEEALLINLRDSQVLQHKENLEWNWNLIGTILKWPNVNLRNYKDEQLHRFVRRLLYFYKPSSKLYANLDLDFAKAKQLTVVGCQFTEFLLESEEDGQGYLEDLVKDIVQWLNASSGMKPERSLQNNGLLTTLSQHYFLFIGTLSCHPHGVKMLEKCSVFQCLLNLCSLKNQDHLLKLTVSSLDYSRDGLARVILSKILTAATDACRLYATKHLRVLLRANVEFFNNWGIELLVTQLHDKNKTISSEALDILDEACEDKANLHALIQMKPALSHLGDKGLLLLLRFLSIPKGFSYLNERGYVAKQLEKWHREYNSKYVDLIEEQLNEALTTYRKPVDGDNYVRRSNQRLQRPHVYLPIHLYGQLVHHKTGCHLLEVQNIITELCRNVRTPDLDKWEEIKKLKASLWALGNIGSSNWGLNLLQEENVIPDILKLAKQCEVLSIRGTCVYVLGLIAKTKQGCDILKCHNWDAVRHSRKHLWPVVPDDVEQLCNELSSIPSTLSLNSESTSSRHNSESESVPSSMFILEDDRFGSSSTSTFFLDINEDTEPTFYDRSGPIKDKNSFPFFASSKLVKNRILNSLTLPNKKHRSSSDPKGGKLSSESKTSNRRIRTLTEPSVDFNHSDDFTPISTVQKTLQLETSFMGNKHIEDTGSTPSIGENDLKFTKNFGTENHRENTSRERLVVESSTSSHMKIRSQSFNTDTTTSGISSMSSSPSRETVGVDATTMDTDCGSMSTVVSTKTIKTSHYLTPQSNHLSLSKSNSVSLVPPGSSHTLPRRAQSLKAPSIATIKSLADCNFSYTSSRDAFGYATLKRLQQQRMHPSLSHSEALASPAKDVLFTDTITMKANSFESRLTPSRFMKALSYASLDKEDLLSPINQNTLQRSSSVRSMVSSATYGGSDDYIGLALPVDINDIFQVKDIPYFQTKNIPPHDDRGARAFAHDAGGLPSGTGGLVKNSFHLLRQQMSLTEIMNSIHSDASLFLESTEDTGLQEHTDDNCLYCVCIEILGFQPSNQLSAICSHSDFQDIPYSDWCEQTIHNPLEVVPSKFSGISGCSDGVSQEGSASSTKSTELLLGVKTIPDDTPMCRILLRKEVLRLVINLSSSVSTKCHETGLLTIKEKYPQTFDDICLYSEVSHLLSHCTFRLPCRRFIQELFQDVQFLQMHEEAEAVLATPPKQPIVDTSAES
T3 sequence (Q99805 29-663): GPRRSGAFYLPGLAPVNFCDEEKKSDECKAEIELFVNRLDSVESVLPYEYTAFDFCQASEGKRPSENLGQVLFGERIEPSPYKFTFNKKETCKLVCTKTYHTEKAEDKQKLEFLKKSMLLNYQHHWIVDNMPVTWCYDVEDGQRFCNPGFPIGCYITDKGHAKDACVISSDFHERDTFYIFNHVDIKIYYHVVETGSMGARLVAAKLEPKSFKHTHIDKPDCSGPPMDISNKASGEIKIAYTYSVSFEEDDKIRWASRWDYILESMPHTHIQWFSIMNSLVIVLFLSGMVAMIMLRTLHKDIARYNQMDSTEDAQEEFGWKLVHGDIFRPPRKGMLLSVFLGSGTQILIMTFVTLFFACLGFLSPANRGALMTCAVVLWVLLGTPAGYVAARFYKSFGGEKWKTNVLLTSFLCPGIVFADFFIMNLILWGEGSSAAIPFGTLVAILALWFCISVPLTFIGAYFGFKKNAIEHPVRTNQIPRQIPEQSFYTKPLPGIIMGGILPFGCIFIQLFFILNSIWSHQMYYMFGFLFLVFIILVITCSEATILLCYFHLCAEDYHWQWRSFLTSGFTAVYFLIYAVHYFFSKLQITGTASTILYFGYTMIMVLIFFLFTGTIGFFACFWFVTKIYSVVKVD
T10 sequence (Q08945 whole entry): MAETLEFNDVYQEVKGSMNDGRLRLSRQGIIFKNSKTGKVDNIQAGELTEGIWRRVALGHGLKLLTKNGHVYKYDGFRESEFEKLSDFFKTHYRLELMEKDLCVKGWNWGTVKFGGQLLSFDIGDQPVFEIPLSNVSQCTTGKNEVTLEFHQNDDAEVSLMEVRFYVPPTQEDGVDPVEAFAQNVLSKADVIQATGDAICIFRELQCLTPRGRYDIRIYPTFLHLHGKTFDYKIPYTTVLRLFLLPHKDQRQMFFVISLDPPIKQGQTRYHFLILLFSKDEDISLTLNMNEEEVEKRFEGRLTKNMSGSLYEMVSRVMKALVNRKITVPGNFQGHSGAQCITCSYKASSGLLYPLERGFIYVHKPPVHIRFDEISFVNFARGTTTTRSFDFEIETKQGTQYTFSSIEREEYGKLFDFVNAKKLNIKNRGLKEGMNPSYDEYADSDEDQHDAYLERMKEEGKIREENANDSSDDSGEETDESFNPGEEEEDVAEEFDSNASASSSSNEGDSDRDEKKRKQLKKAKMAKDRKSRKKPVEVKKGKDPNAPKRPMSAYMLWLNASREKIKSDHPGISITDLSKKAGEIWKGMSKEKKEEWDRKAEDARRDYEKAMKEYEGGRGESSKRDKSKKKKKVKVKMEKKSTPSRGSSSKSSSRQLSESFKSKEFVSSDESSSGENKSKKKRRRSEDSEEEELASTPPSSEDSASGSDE
T7 sequence (P49736 whole entry): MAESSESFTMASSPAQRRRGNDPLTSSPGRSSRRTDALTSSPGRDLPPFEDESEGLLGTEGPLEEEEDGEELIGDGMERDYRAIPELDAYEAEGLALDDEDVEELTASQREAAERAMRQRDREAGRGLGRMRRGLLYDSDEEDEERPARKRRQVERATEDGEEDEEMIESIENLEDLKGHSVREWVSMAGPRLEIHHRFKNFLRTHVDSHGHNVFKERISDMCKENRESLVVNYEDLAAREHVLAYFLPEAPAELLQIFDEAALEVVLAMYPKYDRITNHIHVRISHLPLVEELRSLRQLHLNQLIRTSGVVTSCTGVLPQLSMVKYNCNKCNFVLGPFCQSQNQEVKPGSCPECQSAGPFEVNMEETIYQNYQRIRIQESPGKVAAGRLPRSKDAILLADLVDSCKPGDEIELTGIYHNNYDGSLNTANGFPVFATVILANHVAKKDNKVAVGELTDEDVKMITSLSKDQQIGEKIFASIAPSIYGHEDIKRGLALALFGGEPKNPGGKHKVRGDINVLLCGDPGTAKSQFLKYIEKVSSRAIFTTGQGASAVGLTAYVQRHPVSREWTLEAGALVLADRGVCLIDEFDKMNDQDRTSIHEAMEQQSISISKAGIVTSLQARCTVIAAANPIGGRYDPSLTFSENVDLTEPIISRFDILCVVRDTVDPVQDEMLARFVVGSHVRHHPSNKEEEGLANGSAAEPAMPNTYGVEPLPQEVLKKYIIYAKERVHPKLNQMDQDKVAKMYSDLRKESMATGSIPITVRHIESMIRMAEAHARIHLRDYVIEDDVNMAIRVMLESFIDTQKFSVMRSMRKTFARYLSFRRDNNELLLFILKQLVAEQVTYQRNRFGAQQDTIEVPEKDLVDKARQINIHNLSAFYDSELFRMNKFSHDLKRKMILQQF
T8 sequence (P51570 whole entry): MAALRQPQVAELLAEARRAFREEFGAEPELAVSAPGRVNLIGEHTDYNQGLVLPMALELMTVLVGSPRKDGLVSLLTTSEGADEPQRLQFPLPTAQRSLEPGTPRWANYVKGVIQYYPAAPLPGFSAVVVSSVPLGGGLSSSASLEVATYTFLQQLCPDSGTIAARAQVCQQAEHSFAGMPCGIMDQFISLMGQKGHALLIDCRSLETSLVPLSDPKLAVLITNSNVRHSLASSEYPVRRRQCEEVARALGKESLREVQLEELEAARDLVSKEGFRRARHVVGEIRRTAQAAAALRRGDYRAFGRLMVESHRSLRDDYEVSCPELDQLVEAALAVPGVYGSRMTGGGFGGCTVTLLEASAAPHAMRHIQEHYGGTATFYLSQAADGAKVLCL
T2 sequence (P40938 whole entry): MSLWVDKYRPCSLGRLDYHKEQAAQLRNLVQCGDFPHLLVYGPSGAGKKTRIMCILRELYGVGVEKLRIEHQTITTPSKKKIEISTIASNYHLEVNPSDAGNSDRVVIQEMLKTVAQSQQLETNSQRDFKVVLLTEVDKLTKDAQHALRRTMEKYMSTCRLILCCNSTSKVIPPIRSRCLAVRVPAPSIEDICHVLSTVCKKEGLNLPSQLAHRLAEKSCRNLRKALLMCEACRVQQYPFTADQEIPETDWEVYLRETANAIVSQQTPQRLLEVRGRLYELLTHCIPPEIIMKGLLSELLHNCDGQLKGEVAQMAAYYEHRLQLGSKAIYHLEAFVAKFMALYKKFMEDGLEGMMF
T5 sequence (Q15370 whole entry): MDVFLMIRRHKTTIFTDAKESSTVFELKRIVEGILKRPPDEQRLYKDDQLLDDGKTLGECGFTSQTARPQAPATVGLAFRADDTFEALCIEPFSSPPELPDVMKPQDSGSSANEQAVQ

SMILES	fold changes relative to vehicle control ([1]; HeLa, captured protein DDX1)	fold changes relative to vehicle control ([2]; HeLa, protein RFC3)	fold changes relative to vehicle control ([3]; HeLa, protein TM9SF2)	fold changes relative to vehicle control ([4]; HeLa, protein PLS3)	fold changes relative to vehicle control ([5]; protein TCEB2, HeLa)	fold changes relative to vehicle control ([6]; HeLa, protein RICTOR)	fold changes relative to vehicle control ([7]; HeLa, protein MCM2)	fold changes relative to vehicle control [8, 16]	fold changes relative to vehicle control [9]	fold changes relative to vehicle control [10]	fold changes relative to vehicle control [11]	also measured
Nc1nc2c(c(=O)[nH]1)N(C=O)C(CNc1ccc(C(=O)N[C@@H](CCC(=O)O)C(=O)O)cc1)CN2 (stereo partly shown) [LEU, leucovorin]	1.15	0.99	0.74	0.93	0.9	0.92	1.06	1.18	–	–	–	–
Nc1nc2[nH]cc(CCc3ccc(C(=O)N[C@@H](CCC(=O)O)C(=O)O)cc3)c2c(=O)[nH]1 [PTX, pemetrexed]	–	–	–	–	–	–	–	–	–	–	–	Ki (TbDHFR): 0.29 ± 0.02 µM; fold changes relative to vehicle control [1]: 1.14; fold changes relative to vehicle control [2]: 1.01; fold changes relative to vehicle control [3]: 0.76; fold changes relative to vehicle control [4]: 1.18; fold changes relative to vehicle control [5]: 1.02; fold changes relative to vehicle control [6]: 0.97; fold changes relative to vehicle control [7]: 1.05; fold changes relative to vehicle control [8]: 1.27
CCCCCCOc1ccc(Cc2cnc(N)nc2N)cc1 [compound 1]	–	–	–	–	–	–	–	–	1.31	0.93	0.88	–
CCCCCCOc1cccc(Cc2cnc(N)nc2N)c1 [compound 2]	–	–	–	–	–	–	–	–	1.34	1.44	1.1	–
Nc1nc2cccc(-c3ccccc3)c2n1Cc1ccc(Cl)c(Cl)c1 [compound 3]	–	–	–	–	–	–	–	–	1.17	0.95	0.86	percentage of competition from bead binding [12]: 62%; percentage of competition from bead binding (TB427.04.1870): 47%; percentage of competition from bead binding [13]: -23%; percentage of competition from bead binding [14]: 10%; percentage of competition from bead binding (TB927.8.6760): 20%; percentage of competition from bead binding [15]: 68%; EC50 (T. brucei): 10 µM
NCCOCCOCC(=O)Nc1nc2ncc(CNc3ccc(C(=O)NC(CCC(=O)O)C(=O)O)cc3)nc2c(=O)[nH]1 (stereo not shown) [compound 6]	1.12	1.14	0.84	1.31	1.43	1.11	1.18	1.12	–	–	–	–
NCCCNc1ccc(C(=O)NC(CCC(=O)O)C(=O)O)cc1 (stereo not shown) [compound 7]	1.11	1.16	0.82	1	1.1	1.11	0.88	1.2	–	–	–	–

Reference: article PMC6199744, “Development of Chemical Proteomics for the Folateome and Analysis of the Kinetoplastid Folateome” (ACS Infectious Diseases, 2018)
